Results on 19 compounds are retold here after ChEMBL document CHEMBL4184267, “Novel naftopidil derivatives containing methyl phenylacetate and their blocking effects on α1D/1A-adrenoreceptor subtypes” (Bioorg Med Chem Lett, 2018).

Assay [1] relates to Thoracic aorta. Description: Vasodilatory activity in New Zealand White rabbit thoracic aorta assessed as relaxation of (-)-noradrenaline-induced contractile response at 1 uM relative to untreated control. It is filed as functional, Oryctolagus cuniculus. Further details: scale not given: the % may be the effect or the level left.
Assay [2] relates to Thoracic aorta. Description: Vasodilatory activity in New Zealand White rabbit thoracic aorta assessed as relaxation of (-)-noradrenaline-induced contractile response at 0.1 uM relative to untreated control. In kind it is functional, Oryctolagus cuniculus. Further details: scale not given: the % may be the effect or the level left.
For assay [3], the system named is Thoracic aorta. The assay is described as follows: Vasodilatory activity in New Zealand White rabbit thoracic aorta assessed as relaxation of (-)-noradrenaline-induced contractile response at 10 uM relative to untreated control. In kind it is functional, Oryctolagus cuniculus. More on the design: scale not given: the % may be the effect or the level left.
Assay [4] concerns the target T1, Alpha-1B adrenergic receptor (Homo sapiens, UniProt P35368).
T1 sequence (P35368 whole entry): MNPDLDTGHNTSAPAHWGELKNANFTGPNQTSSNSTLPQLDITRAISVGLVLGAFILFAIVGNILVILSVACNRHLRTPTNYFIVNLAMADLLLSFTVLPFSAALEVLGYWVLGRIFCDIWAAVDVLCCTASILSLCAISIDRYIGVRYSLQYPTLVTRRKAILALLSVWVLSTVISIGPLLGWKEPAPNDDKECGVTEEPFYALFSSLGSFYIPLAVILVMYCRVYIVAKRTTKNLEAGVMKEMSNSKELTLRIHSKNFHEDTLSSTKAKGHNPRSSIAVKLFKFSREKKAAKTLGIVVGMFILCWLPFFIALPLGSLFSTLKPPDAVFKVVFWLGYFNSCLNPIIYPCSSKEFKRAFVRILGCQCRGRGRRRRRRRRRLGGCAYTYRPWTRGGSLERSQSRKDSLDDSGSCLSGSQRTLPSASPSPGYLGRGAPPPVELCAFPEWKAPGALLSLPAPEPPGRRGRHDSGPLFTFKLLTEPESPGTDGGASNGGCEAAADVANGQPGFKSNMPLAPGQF
Description: Displacement of [125I-HEAT from human alpha1B-adrenoreceptor expressed in CHOK1 cell membranes incubated for 60 mins. (In general: Loss of bound radioactivity is the signal in a displacement assay; it reports binding, not function.)

Assay [5] concerns the target T2, Alpha-1D adrenergic receptor (Homo sapiens, UniProt P25100).
T2 sequence (P25100 whole entry): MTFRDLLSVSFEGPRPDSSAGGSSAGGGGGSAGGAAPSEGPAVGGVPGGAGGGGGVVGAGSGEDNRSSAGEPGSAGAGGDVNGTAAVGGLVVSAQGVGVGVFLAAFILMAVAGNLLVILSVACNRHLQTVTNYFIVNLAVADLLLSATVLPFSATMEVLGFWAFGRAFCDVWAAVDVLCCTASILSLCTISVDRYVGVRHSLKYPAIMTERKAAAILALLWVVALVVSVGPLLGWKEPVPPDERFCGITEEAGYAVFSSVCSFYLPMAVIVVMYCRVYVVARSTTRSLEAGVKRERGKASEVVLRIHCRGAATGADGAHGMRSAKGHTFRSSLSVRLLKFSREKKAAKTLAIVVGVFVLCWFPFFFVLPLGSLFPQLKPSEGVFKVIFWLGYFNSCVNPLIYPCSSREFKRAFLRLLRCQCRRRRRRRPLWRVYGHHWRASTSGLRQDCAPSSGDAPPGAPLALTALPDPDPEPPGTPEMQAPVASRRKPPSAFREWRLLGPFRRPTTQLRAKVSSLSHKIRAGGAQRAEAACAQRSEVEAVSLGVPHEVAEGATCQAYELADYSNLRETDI
The assay is described as follows: Displacement of [125I-HEAT from human alpha1D-adrenoreceptor expressed in CHOK1 cell membranes incubated for 60 mins.

Assay [6] has as its target T3, Alpha-1B adrenergic receptor (Rattus norvegicus, UniProt P15823).
T3 sequence (P15823 whole entry): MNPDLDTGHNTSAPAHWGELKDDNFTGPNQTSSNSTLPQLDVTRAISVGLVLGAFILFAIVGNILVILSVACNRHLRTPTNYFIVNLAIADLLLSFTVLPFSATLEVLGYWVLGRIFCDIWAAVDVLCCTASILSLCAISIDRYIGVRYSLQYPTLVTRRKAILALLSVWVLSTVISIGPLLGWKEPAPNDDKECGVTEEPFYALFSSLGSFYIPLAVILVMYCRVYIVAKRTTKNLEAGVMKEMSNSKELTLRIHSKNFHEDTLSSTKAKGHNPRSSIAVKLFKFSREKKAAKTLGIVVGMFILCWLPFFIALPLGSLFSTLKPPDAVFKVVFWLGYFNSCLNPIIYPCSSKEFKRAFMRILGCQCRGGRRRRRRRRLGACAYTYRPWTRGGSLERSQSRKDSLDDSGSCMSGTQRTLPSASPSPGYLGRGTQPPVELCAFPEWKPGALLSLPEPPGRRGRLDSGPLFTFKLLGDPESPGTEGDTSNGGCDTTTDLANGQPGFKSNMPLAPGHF
Description: Antagonist activity at alpha1B-adrenoreceptor in Sprague-Dawley rat spleen assessed as relaxation of (-)-noradrenaline-induced contractile response. It is filed as functional. The following applies: read-out: pA2 (converted).

Assay [7] deals with T4, Alpha-1A adrenergic receptor (Rattus norvegicus, UniProt P43140).
T4 sequence (P43140 whole entry): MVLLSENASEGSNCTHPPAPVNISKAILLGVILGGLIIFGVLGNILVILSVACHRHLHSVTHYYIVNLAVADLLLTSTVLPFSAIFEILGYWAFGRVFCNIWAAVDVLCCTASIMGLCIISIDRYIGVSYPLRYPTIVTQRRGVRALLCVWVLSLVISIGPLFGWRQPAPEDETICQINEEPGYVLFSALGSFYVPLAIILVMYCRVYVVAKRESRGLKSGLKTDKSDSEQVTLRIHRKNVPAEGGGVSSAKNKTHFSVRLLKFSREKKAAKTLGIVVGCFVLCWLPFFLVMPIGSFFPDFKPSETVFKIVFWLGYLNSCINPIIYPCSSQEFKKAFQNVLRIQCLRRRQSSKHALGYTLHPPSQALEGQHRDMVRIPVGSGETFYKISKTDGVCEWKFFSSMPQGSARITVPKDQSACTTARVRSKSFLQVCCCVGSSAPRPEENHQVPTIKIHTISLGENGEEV
The assay is described as follows: Antagonist activity at alpha1A-adrenoreceptor in Sprague-Dawley rat vas deferens assessed as relaxation of (-)-noradrenaline-induced contractile response. In kind it is functional. The following applies: read-out: pA2 (converted).

For assay [8], the target named is T5, Alpha-1D adrenergic receptor (Rattus norvegicus, UniProt P23944).
T5 sequence (P23944 whole entry): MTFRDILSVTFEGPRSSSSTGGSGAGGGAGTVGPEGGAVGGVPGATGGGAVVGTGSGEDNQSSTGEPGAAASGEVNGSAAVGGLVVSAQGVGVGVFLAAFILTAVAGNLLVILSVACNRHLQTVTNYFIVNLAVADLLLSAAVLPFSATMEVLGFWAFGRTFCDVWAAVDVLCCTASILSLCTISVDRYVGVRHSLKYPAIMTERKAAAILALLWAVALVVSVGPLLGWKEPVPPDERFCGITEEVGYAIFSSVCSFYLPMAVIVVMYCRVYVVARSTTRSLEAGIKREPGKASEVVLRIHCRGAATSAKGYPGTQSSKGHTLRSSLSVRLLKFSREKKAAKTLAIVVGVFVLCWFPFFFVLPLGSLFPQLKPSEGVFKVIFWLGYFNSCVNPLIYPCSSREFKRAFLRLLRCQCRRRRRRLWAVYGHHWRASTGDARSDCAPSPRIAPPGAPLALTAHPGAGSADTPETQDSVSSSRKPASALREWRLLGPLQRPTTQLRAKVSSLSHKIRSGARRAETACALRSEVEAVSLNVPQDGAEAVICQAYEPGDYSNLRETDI
Description: Antagonist activity at alpha1D-adrenoreceptor in Sprague-Dawley rat thoracic aorta assessed as relaxation of (-)-noradrenaline-induced contractile response. It is filed as functional. The following applies: read-out: pA2 (converted).

As usually defined, the Ki is the equilibrium dissociation constant of an inhibitor or competing ligand from its target.

With `COC(=O)Cc1ccc(OCC(O)CN2CCN(c3cccc(C)c3C)CC2)cc1` (stereo not drawn), the Activity with Thoracic aorta [1] came to 43.3%; in the assay with Thoracic aorta [2], 12.5%; in the assay on Thoracic aorta [3] it was 81.7%.

For the compound `COC(=O)Cc1ccc(OCC(O)CN2CCN(c3ccc(C)c(Cl)c3)CC2)cc1` (stereo not drawn), the Activity in the assay on Thoracic aorta [1] is given as 25.9%; with Thoracic aorta [2] it was 19.5%; with Thoracic aorta [3], 38.7%.

On to `COc1ccccc1N1CCN(CC(O)COc2cccc3ccccc23)CC1` (stereo not drawn) [NAFTOPIDIL], for which the Activity in the assay with Thoracic aorta [1] was 86.9%; in the assay with Thoracic aorta [2] it was 25.1%; with Thoracic aorta [3], 97.8%. In addition, the Ki in assay [4] is 20 nM; in assay [5] it was 1.2 nM.

`COC(=O)Cc1ccc(OCC(O)CN2CCN(c3cccc(OC)c3)CC2)cc1` (stereo not drawn): the Activity in the assay on Thoracic aorta [1] was found to be 23.7%; with Thoracic aorta [2], 13%; in the assay on Thoracic aorta [3], 39.8%.

Consider `COC(=O)Cc1ccc(OCC(O)CN2CCN(c3cc(C)cc(C)c3)CC2)cc1` (stereo not drawn), for which the Activity with Thoracic aorta [1] amounted to 18.6%; in the assay on Thoracic aorta [2], 5.8%; in the assay on Thoracic aorta [3], 61.4%.

For `COC(=O)Cc1ccc(OC[C@H](O)CN2CCN(c3cc(C)ccc3C)CC2)cc1`, the values for the Kb in assay [6], in assay [7] and in assay [8] were 447 nM, 63.1 nM and 38 nM, respectively.

With `COC(=O)Cc1ccc(OCC(O)CN2CCN(c3ccc(C)cc3C)CC2)cc1` (stereo not drawn), the Activity in the assay with Thoracic aorta [1] was determined as 43.3%; in the assay on Thoracic aorta [2], 13.7%; with Thoracic aorta [3], 92.7%.

With `COC(=O)Cc1ccc(OCC(O)CN2CCN(c3ccc(C)cc3)CC2)cc1` (stereo not drawn), the Activity with Thoracic aorta [1] is 28.7%; in the assay with Thoracic aorta [2] it was 15.3%; in the assay on Thoracic aorta [3], 56.7%.

Turning to `COC(=O)Cc1ccc(OC[C@@H](O)CN2CCN(c3cc(C)ccc3C)CC2)cc1`, the Kb in assay [6] was 269 nM; in assay [7], 30.2 nM; in assay [8] it was 15.5 nM.

Turning to `COC(=O)Cc1ccc(OCC(O)CN2CCN(c3ccccc3Cl)CC2)cc1` (stereo not drawn), the results for the Activity in the assay with Thoracic aorta [1], with Thoracic aorta [2] and in the assay with Thoracic aorta [3] were 58.7%, 29% and 98.3%, respectively.

`COC(=O)Cc1ccc(OCC(O)CN2CCN(c3cccc(C)c3)CC2)cc1` (stereo not drawn): the values for the Activity in the assay on Thoracic aorta [1], in the assay with Thoracic aorta [2] and in the assay with Thoracic aorta [3] were 36.9%, 14.8% and 63.5%, respectively.

In the case of `COC(=O)Cc1ccc(OCC(O)CN2CCN(c3ccccc3OC)CC2)cc1` (stereo not drawn), the Kb is 603 nM in assay [6], 148 nM in assay [7] and 77.6 nM in assay [8]. For the same compound, the values for the Activity in the assay with Thoracic aorta [1], in the assay with Thoracic aorta [2] and in the assay with Thoracic aorta [3] were 71.1%, 27.6% and 100%, respectively.

Regarding `COC(=O)Cc1ccc(OCC(O)CN2CCN(c3ccc(C)c(C)c3)CC2)cc1` (stereo not drawn), the results for the Activity with Thoracic aorta [1], in the assay on Thoracic aorta [2] and in the assay on Thoracic aorta [3] were 28.4%, 8.9% and 70.2%, respectively.

Take `CCOc1cccc(N2CCN(CC(O)COc3ccc(CC(=O)OC)cc3)CC2)c1` (stereo not drawn): the Activity was found to be 10.2% with Thoracic aorta [1], 6.1% in the assay on Thoracic aorta [2] and 14.9% in the assay with Thoracic aorta [3].

Turning to `COC(=O)Cc1ccc(OCC(O)CN2CCN(c3cc(Cl)c(OC)cc3OC)CC2)cc1` (stereo not drawn), the Activity in the assay with Thoracic aorta [1] turned out to be 20.4%; in the assay with Thoracic aorta [2], 8.2%; in the assay on Thoracic aorta [3], 46.1%.

Regarding `COC(=O)Cc1ccc(OCC(O)CN2CCN(c3ccccc3C)CC2)cc1` (stereo not drawn), the Kb was 324 nM in assay [6], 490 nM in assay [7] and 20 nM in assay [8]. The Activity was 62.3% with Thoracic aorta [1], 27.3% in the assay with Thoracic aorta [2] and 99.3% in the assay on Thoracic aorta [3].

Consider `COC(=O)Cc1ccc(OCC(O)CN2CCN(c3cc(C)ccc3C)CC2)cc1` (stereo not drawn), for which the Kb in assay [6] was 759 nM; in assay [7], 38.9 nM; in assay [8], 44.7 nM. For the same compound, the Activity with Thoracic aorta [1] was determined as 66.2%; in the assay on Thoracic aorta [2], 24.3%; in the assay with Thoracic aorta [3] it was 100%.

For `COC(=O)Cc1ccc(OCC(O)CN2CCN(c3ccc(Br)cc3)CC2)cc1` (stereo not drawn), the results for the Activity in the assay on Thoracic aorta [1], in the assay with Thoracic aorta [2] and in the assay with Thoracic aorta [3] were 16.6%, 7.9% and 43.5%, respectively.

Take `COC(=O)Cc1ccc(OCC(O)CN2CCN(c3ccc(OC)cc3)CC2)cc1` (stereo not drawn): the results for the Activity in the assay with Thoracic aorta [1], with Thoracic aorta [2] and with Thoracic aorta [3] were 7%, 6.3% and 15.8%, respectively.
